The record followed here is patent US7109192B2, “Substituted imidazo-pyridinones and imidazo-pyridazinones, the preparation thereof and their use as pharmaceutical compositions” (Boehringer Ingelheim Pharma GmbH & Co KG, priority 2002, dated 2006).

Counter-ions that a name gives are not always drawn.

T1 sequence (P27487 whole entry): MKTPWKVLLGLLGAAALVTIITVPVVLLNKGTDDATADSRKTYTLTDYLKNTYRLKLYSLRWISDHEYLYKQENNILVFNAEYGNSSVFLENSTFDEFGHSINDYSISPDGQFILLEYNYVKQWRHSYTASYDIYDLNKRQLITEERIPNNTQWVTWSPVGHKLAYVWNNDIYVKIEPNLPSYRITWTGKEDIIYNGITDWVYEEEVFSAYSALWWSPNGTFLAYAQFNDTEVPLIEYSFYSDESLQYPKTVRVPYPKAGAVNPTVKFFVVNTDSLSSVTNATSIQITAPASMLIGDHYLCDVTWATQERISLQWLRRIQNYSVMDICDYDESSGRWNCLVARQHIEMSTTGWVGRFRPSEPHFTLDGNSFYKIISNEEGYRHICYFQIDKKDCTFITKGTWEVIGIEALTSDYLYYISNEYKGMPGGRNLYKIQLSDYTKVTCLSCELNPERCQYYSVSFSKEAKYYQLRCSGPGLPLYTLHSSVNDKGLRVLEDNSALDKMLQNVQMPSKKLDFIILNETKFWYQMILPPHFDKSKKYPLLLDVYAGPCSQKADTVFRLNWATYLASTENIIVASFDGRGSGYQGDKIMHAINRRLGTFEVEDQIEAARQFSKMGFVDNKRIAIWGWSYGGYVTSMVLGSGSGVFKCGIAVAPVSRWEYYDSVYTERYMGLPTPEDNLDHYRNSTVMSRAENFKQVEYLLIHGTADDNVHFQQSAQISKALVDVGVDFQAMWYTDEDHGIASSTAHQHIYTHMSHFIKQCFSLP

The first data set relates to rats. Description: Tolerability in rats after oral administration. It counts as in vivo, rat. To be noted: 10 mg/kg.
With `CC#CCn1c(N2CCCC(N)C2)nc2cnn(Cc3cccc4ccccc34)c(=O)c21` (stereo not shown) [Example 2, 2-(3-amino-piperidin-1-yl)-3-(but-2-ynyl)-5-(naphthalen-1-ylmethyl)-3,5-dihydro-imidazo[4,5-d]pyridazin-4-one], the “changes in the animals' behaviour” value is on record as “no changes in the animals' behaviour could be detected”.

The next data set concerns the target T1, DPP-IV (Homo sapiens, UniProt P27487).
T1 construct: an extract of human colon carcinoma cell line Caco-2 is used as the DPP IV source; endogenous in cells; host or cells: Caco-2 (human colon carcinoma), differentiated to induce DPP-IV expression; Nonidet-P40 solubilised extract
The data set is described as follows: DPP-IV inhibition assay with Caco-2 cell extract, AFC substrate, fluorescence. The conditions noted are these: extract of human colon carcinoma cell line Caco-2 as DPP IV source; 100 μM AFC substrate; 60 minutes, ambient temperature. It counts as biochemical. How it is done:
The cell extract was obtained from cells solubilised in a buffer (10 mM Tris HCl, 0.15 M NaCl, 0.04 t.i.u. aprotinin, 0.5% Nonidet-P40, pH 8.0) by centrifuging at 35,000 g for 30 minutes at 4° C. (to remove cell debris).
The DPP-IV assay was carried out as follows:
50 μl substrate solution (AFC; AFC is amido-4-trifluoromethylcoumarin), final concentration 100 μM, were placed in black microtitre plates. 20 μl of assay buffer (final concentrations 50 mM Tris HCl pH 7.8, 50 mM NaCl, 1% DMSO) was pipetted in. The reaction was started by adding 30 μl of solubilised Caco-2 protein (final concentration 0.14 μg of protein per well). The test substances to be investigated were typically added prediluted in 20 μl, and the volume of assay buffer was then reduced accordingly. The reaction was carried out at ambient temperature, incubating for 60 minutes. […] Blank readings (corresponding to 0% activity) were obtained in mixtures without any Caco-2 protein (volume replaced by assay buffer), control values (corresponding to 100% activity) were obtained in mixtures with no substance added.
For orientation: IC50 means the concentration that gives 50% inhibition. A higher IC50 goes with weaker potency in that assay. `CC#CCn1c(N2CCCC(N)C2)nc2cnn(Cc3ccc4nccnc4c3)c(=O)c21` (stereo not shown) [Example 182, 2-(3-amino-piperidin-1-yl)-3-(but-2-ynyl)-5-(quinoxalin-6-ylmethyl)-3,5-dihydro-imidazo[4,5-d]pyridazin-4-one]: the half-maximal inhibitory concentration (IC50) was 1.2 nM.
In the case of `CC#CCn1c(N2CCC[C@@H](N)C2)nc2cnn(Cc3ccc(F)c4ccccc34)c(=O)c21` [Example 191, 2-((R)-3-amino-piperidin-1-yl)-3-(but-2-ynyl)-5-(4-fluoronaphthalen-1-ylmethyl)-3,5-dihydro-imidazo[4,5-d]pyridazin-4-one hydrochloride], the IC50 is 14 nM.
Still for that read-out and setting: then `CC#CCn1c(N2CCC[C@@H](N)C2)nc2cnn(Cc3nc4cc(C(F)(F)F)ccc4s3)c(=O)c21` [Example 195, 2-((R)-3-amino-piperidin-1-yl)-3-(but-2-ynyl)-5-(5-trifluoromethylbenzothiazol-2-ylmethyl)-3,5-dihydro-imidazo[4,5-d]pyridazin-4-one hydrochloride], with 17 nM; and `CC#CCn1c(N2CCC[C@@H](N)C2)nc2cnn(Cc3ccc4nonc4c3)c(=O)c21` [Example 202, 2-((R)-3-amino-piperidin-1-yl)-3-(but-2-ynyl)-5-(benzo[1,2,5]oxadiazol-5-ylmethyl)-3,5-dihydro-imidazo[4,5-d]pyridazin-4-one], with 9.8 nM.
With `Cc1cc2ccccc2c(Cn2ncc3nc(N4CCC[C@@H](N)C4)n(Cc4ccccc4Cl)c3c2=O)n1` [Example 205, 2-((R)-3-amino-piperidin-1-yl)-3-(2-chlorobenzyl)-5-(3-methyl-isoquinolin-1-ylmethyl)-3,5-dihydro-imidazo[4,5-d]pyridazin-4-one], inhibition was half-maximal at 5.4 nM (IC50).
The same measure, in the same setting: then `CC#CCn1c(N2CCC[C@@H](N)C2)nc2cnn(Cc3cn(C)c(=O)c4ccccc34)c(=O)c21` [Example 217, 2-((R)-3-amino-piperidin-1-yl)-3-(but-2-ynyl)-5-(2-methyl-2H-isoquinolin-1-on-4-ylmethyl)-3,5-dihydro-imidazo[4,5-d]pyridazin-4-one], with 10 nM.
